From publication PMC11329928, “Design, synthesis and structure-activity relationship (SAR) studies of an unusual class of non-cationic fatty amine-tripeptide conjugates as novel synthetic antimicrobial agents” (Frontiers in Pharmacology, 2024)

Assays:
[1] = RP-HPLC retention time used to determine hydrophobicity; assay type: physicochemical; conditions: analytical RP-HPLC, C18 Sunfire column (4.6 mm × 150 mm, 3.5 μm); A = 0.05% TFA in water, B = acetonitrile; 10% to 100% B in 20 min then isocratic 100% B 10 min; 217 and 254 nm; used as measure of hydrophobicity
Procedure: The purity of the lipopeptides was checked by analytical RP-HPLC on an Agilent Infinity instrument equipped with a Diode Array and a C18 Sunfire column (4.6 mm × 150 mm, 3.5 μm). As mobile phase A:B mixtures were used, where A = 0.05% TFA in water and B = acetonitrile. The samples were analyzed at 217 and 254 nm in a gradient from 10% of B to 100% of B in 20 min followed by isocratic 100% of B in 10 min.
Retention times were used to determine the hydrophobicity ([Neubauer et al., 2020]). HRMS (EI+) was carried out in an Agilent 6,520 Accurate-Mass Q-TOF LC/MS spectrometer using water/acetonitrile mixtures. Results can be found in Supplementary Section S3, S4.

[2] = test system: Streptococcus pneumoniae R6; assay: Growth inhibition / lysis screening of planktonic cultures (OD550/600); assay type: cell-based; design: key: (+++) full inhibition; (++) partial inhibition; (+) growth retardation; -: (−) no effect; conditions: S. pneumoniae R6, 50 and 100 μM compound added at early logarithmic phase (T1), OD550/600 followed 10 h, 37°C
Procedure: (§1) Planktonic cultures of selected pathogens (S. pneumoniae R6, S. pyogenes ^T, Staphylococcus aureus ^T, Escherichia coli DH10B, and Pseudomonas aeruginosa PAO1 strains) on early logarithmic-phase (T1) were assayed for their sensitivity to a broad range of DICAM compounds, as indicated in Table 1. Their bacteriostatic or lytic effect was first tested by measuring the variation of the OD550/600 as a function of time (10 h) when (50/100 μM) DICAMs were added, compared to untreated controls. The screening results, summarized in Table 1, evidenced that a potent antimicrobial activity may exist even when the negative charge of the peptide was higher than in the prototype compounds.
(§2) Susceptibility to DICAMs was first tested by growth-inhibition assays at 50 and 100 μM of compound. Briefly, working solutions at 5 mM or 10 mM DICAM in pure DMSO were prepared from DICAM stocks (40 mM in pure DMSO) and diluted with fresh culture medium to 5× the desired final concentration. Aliquots (50 µL) of these solutions were added to 200 µL of bacterium cultures grown to early exponential phase (OD550/600 c. a. 0.15–0.2 in sterile 96-well plates (Cultek, Spain). Incubation continued for 10 h at 37°C and turbidity (OD550/600) values were measured every 20 min to monitor growth and lysis, using a VersaMax microplate reader (Molecular Devices; United Kingdom). Next, the activity dependence on DICAM’s dose was examined by measuring the turbidity of treated and untreated cultures as a function of time. Also, the decay of bacterial viability (CFU/mL) at selected times of treatment was assessed by colony counting on LB-agar or TSA plates after overnight incubation at 37°C. By default, 10 μL of 10-fold serially diluted samples were plated, which set the lower detection limit at 10^2 CFU/mL (10^1 CFU/mL when 100 μL of the undiluted sample was seeded).

S. pneumoniae D39 = assay type: cell-based, Streptococcus pneumoniae
Excerpt: First, the substitution of the fatty amino chain of 18 carbon atoms of the reference compound DICAM 2 by either an OMe group (methylated tripeptide DICAM 5) or an amine with 12 carbon atoms (DICAM 9) abolished the activity against all three pathogens. However, the activity remained intact when the chain of the fatty amine of prototypes DICAMs 1 and 4 was two carbon atoms shorter (DICAM 10 and DICAM 12, respectively), based on S. pneumoniae and S. pyogenes results. […] Third, Glu and Ala were tolerated as C-terminal residues of the lipotripeptides. […] In addition, deletion of the C-terminal Glu (DICAM 13) eradicated the activity against S. pneumoniae and S. aureus. However, a delay and small inhibition of S. pyogenes ^T growth was still observed. Fourth, Glu (DICAMs 19 and 20) and Orn (DICAMs 21 and 22) were tolerated as N-terminal residues, with the impact of these modifications being pathogen-dependent. […] SAR studies continued by measuring the dose dependence of DICAM’s activity at T1 with all the compounds found to be active against S. pyogenes or S. aureus in the initial screening, and all but one compound in the case of S. pneumoniae. The OD values of bacterial cultures were monitored after DICAM addition, and the decrease in the number of viable bacteria was measured relative to controls (Figures 4–6; Supplementary Figure S1). As antibacterial efficacy may decline with the bacterium dose in the inoculum ([Belley et al., 2009]; [Udekwu et al., 2009]; [Luca et al., 2013]), the assays were performed using the bacterial concentrations necessary for the fluorescence experiments in Section 2.3 (10^7–10^8 CFU/mL). At these high bacterial densities, MICs were determined as the DICAM concentration at which bacteria neither grow nor are killed (the stationary concentration (SC)), following [Udekwu et al., 2009]. By fitting the logarithmic plot of cell viability decrease vs. the DICAM dose to a Hill function (see Section 5.2.3.1) we were able to determine the maximum variation in viability (Δlogmax = ∆log f - ∆log 0, where ∆log f and ∆log 0 are the upper and lower limits of Δlog) in the assay conditions, the SC concentration (Δlog = 0), the dose required for half-variation in Δlogmax (K 1/2), and the cooperativity of the antimicrobial effect (N H).
as §2
As antibacterial efficacy may decline with the bacterium dose in the inoculum ([Belley et al., 2009]; [Udekwu et al., 2009]; [Luca et al., 2013]), activity assays were performed using the bacterial concentrations required for the fluorescence experiments in Section 2.3 (10^7–10^8 CFU/mL). At such bacterial densities, MICs were determined as the DICAM concentration at which bacteria neither grow nor are killed under assay conditions (the stationary concentration (SC)), as indicated in Section 2.2. […]

[3] = test system: Pseudomonas aeruginosa PAO1; assay: Growth inhibition screening of planktonic cultures (OD550/600); assay type: cell-based; design: key: (+++) full inhibition; (++) partial inhibition; (+) growth retardation; -: (−) no effect; conditions: P. aeruginosa PAO1, 50 and 100 μM compound added at T1, OD550/600 followed 10 h, 37°C
Procedure: as §1, §2

Staphylococcus aureus T = assay: as above; assay type: cell-based; design: key: (+++) full inhibition; (++) partial inhibition; (+) growth retardation; -: (−) no effect; conditions: S. aureus T, 50 and 100 μM compound added at T1, OD550/600 followed 10 h, 37°C
Procedure: as §1, §2

Escherichia coli DH10B [4] = assay: as above; assay type: cell-based; design: key: (+++) full inhibition; (++) partial inhibition; (+) growth retardation; -: (−) no effect; conditions: E. coli DH10B, 50 and 100 μM compound added at T1, OD550/600 followed 10 h, 37°C
Procedure: as §1, §2

Streptococcus pyogenes T = assay: as above; assay type: cell-based; design: key: (+++) full inhibition; (++) partial inhibition; (+) growth retardation; -: (−) no effect; conditions: S. pyogenes T, 50 and 100 μM compound added at T1, OD550/600 followed 10 h, 37°C
Procedure: as §1, §2

Escherichia coli DH10B [5] = assay: Resting-cell viability (CFU) with 0.5 mM EDTA; assay type: cell-based; conditions: E. coli DH10B, 100 µM compound, 3 h incubation
Procedure: (§3) Addition of tested compounds to the culture medium had little or no effect on bacterial growth, even at a concentration of 100 μM (Table 1). Since inactivity could arise from the inability of DICAMs to cross the outer membrane, we next tested their effect on bacterial suspensions in the absence or the presence of 0.5 mM EDTA, an outer membrane permeating agent. A decrease of approximately 90% in bacterial viability was observed after 3 h treatment with DICAM 2 and DICAM 4, compared to controls in EDTA-containing buffer (Supplementary Figure S5). No variations were found with the other compounds tested (Table 1), showing that only DICAMs containing Ala/Asn- Pro -Glu tripeptides were able to access the cell membrane and kill these pathogens when the outer membrane permeability was enhanced.
(§4) For activity assays on resting cells, bacteria grown to exponential phase (OD600 ≈ 0.3) were centrifuged and washed with 20 mM Tris-HCl (pH 7.5), adjusting the final OD600 to ≈0.6 (≈10^8 CFU/mL) with the same buffer. If required, EDTA (0.5 mM final concentration) was next added and the bacterial suspension was dispensed (225 µL per well) in 96-well plates, and then treated with 100 µM DICAM (25 µL). Samples were incubated at 37°C for 3 h and turbidity measurements were taken at selected intervals, also measuring the decay in cell viability at the end of incubation. Controls with buffer (with and without 1% DMSO), 100 µM DICAM, or 0.5 mM EDTA were run in parallel.

[6] = test system: Pseudomonas aeruginosa PAO1; assay: Resting-cell viability (CFU) with 0.5 mM EDTA; assay type: cell-based; conditions: P. aeruginosa PAO1, 100 µM compound, 3 h incubation
Procedure: as §3, §4

[7] = Calcein release from LUVs; conditions: 10 μM DICAM, 25°C, vesicle buffer pH 7.4, calcein release
Procedure: LUVs were prepared for calceine liberation assays as described ([Chongsiriwatana and Barron, 2009]). Lipid composition (mole %) of LUVs was: POPG (100), POPG:CL (80:20), POPG:CL:DOPE ([…]), and POPG:CL:GlcDAG (75:5:20). Briefly, the nitrogen-dried lipid mixture was dissolved at 1.25 mM with 100 mM calceine in vesicle buffer (10 mM Tris, 140 mM NaCl, 0.5 mM EDTA, pH 7.4) followed by five thaw-freeze cycles. Calceine-entrapped LUVs were prepared by extrusion through 100 nm polycarbonate membranes (Avanti Polar Lipids). Non-entrapped calceine was separated from LUVs by gel filtration on a Sephacryl® S200-HR column (Sigma). LUVs permeabilization was monitored at 25°C by fluorescence emission at 550 nm (λex = 480 nm) as a function of time in a Fluoromax-4 spectrofluorometer (Horiba, France) using agitation. Signal stabilization of samples (1,500 µL vesicle buffer plus 45 µL LUVs) was recorded for 5 min before 10 µM final DICAM addition, and calcein release was monitored for a maximum of 20 min. After incubation, samples were solubilized in Triton X-100 (0.025%) and the fluorescence signal recorded thereafter was used to normalize the entire data set. Solubilization of DICAM-untreated LUVs in Triton X-100 was used as a positive control. No perturbation was detected in controls containing DMSO.

Substance | Retention time [1] [min] | Growth halt or lysis (50/100 μM), Spn [2] | Reduction of the number of viable cells at saturating doses (S. pneumoniae D39; S. pneumoniae D39, within 60 min) [log-units] | Reduction of the number of viable cells at 3 × SC, S. pneumoniae (S. pneumoniae D39; after 1-h incubation at 3 × SC values) | Growth halt or lysis (50/100 μM), Pa [3] | Growth halt or lysis (50/100 μM), Sa T (Staphylococcus aureus T) | Growth halt or lysis (50/100 μM), Ec (Escherichia coli DH10B [4]) | Growth halt or lysis (50/100 μM), Spy T (Streptococcus pyogenes T) | CFU's decay in the presence of 0.5 mM EDTA, Ec (data in parenthesis) (Escherichia coli DH10B [5]) | CFU's decay in the presence of 0.5 mM EDTA, Pa (data in parenthesis) [6] | Permeation of DOPE:POPG:CL (80:15:5) LUVs, result in words [7]
Ala- Pro -Glu-NH-C12H25 · HCl [DICAM 11] | 15.29 | - |  |  |  |  |  |  |  |  | 
Ala- Pro -Glu-NH-C16H33 · HCl [DICAM 12] | 17.57 | +++ | ≥ 4.6 | 99.2%–99.8 |  |  |  |  |  |  | 
Ala- Pro -Trp-NH-C18H37 · HCl [DICAM 16] | 21.04 | - |  |  | - | - | - | - | (−) ((−) ≤ 0.3 log-units) | (−) ((−) ≤ 0.3 log-units) | 
Asn- Ala -Glu-NH-C18H37 · HCl [DICAM 17] | 18.63 | - |  |  | - | - | - | - | (−) ((−) ≤ 0.3 log-units) | (−) ((−) ≤ 0.3 log-units) | 
Asn- Pro -Glu-OMe · HCl [DICAM 5] | 5.15 | - |  |  |  |  |  |  |  |  | 
Asn- Pro -Phe-NH-C18H37 · HCl [DICAM 7] | 22.21 | - |  |  |  |  |  | - |  |  | particularly effective
Cbz-Ala- Pro -Trp-NH-C18H37 [DICAM 15] | 23.18 | - |  |  | - |  | - |  | (−) ((−) ≤ 0.3 log-units) | (−) ((−) ≤ 0.3 log-units) | 
Cbz-Asn- Pro -Glu(O^tBu)-NH-C18H37 [DICAM 8] |  | - |  |  |  |  |  |  |  |  | 
Cbz-Asn- Pro -Glu-NH-C12H25 [DICAM 9] | 15.80 | - |  |  |  |  |  |  |  |  | 
Pro -Glu-NH-C18H37 · HCl [DICAM 18] | 19.54 | - |  |  | - |  | - |  |  |  | 
